# Calls of active or inactive are those of the source. No cut-off for these calls is given here.
# Tests used:
# Candida albicans [1] = test: Antifungal activity against fluconazole-resistant Candida albicans 24D assessed as inhibition of fungal growth measured for 24 hrs by CLSI based microdilution analysis; format: functional
# Candida albicans [2] = test: Antifungal activity against fluconazole-resistant Candida albicans 112869 assessed as inhibition of fungal growth measured for 24 hrs by CLSI based microdilution analysis; format: functional
# Cryptococcus neoformans = test: Antifungal activity against Cryptococcus neoformans CGMCC3 1563 assessed as reduction in fungal growth incubated for 72 hrs by CLSI based microdilution analysis; format: functional
# CYP3A4 = test: Selectivity index, ratio of MIC80 for antifungal activity against Candida albicans to IC50 for inhibition of CYP3A4 in human liver microsomes; format: toxicity; details: read-out: Selectivity Index
# Candida albicans [3] = test: Antifungal activity against fluconazole-resistant Candida albicans 901 assessed as inhibition of fungal growth measured for 24 hrs by CLSI based microdilution analysis; format: functional
# Candida albicans [4] = test: Antifungal activity against fluconazole-resistant Candida albicans 102 assessed as inhibition of fungal growth measured for 24 hrs by CLSI based microdilution analysis; format: functional
# [5] = Hemolytic activity in mouse RBC assessed as hemolysis at 100 microg/ml incubated for 60 mins relative to control; format: toxicity, cell-based, Erythrocyte; details: red blood cells (erythrocytes), at 100 µg/mL, read-out: Activity
# Candida albicans [6] = test: In-vivo antifungal activity against Candida albicans […] infected in skin infected ICR mouse model assessed as wound healing at 1 mg/kg, ip pretreated for 24 hrs followed by infection and measured for 5 days; format: functional, organism-based; details: time 144.0 hrs
# Candida albicans [7] = test: In-vivo antifungal activity against Candida albicans […] infected in ICR mouse model assessed as median survival time at 1 mg/kg, ip administered once daily pretreated for 24 hrs followed by infection and measured every 2 hrs for 5 days; format: functional; details: time 144 hrs
# [8] = Half life in Sprague-Dawley rat at 2 mg/kg, iv measured at 0.08 to 24 hrs by LC-MS/MS analysis; format: ADME, organism-based; details: in vivo, time 0.08-24 hrs
# Candida albicans [9] = test: In-vivo antifungal activity against multidrug-resistant Candida albicans 24D infected in ICR mouse model assessed as median survival time at 1 mg/kg, ip administered once daily pretreated for 24 hrs followed by infection and measured every 2 hrs for 5 days; format: functional; details: time 144 hrs
# Nakaseomyces glabratus = test: Antifungal activity against Candida glabrata ATCC 15126 assessed as reduction in fungal growth incubated for 24 hrs by CLSI based microdilution analysis; format: functional
# [10] = target: T1, Lanosterol 14-alpha demethylase (Candida albicans (strain SC5314 / ATCC MYA-2876) (Yeast), UniProt P10613); test: Inhibition of CYP51 in Candida albicans […] assessed as decrease in unknown sterol biosynthesis level at 0.5 times MIC80 incubated for 16 hrs by GC-MS analysis relative to control
# T1 sequence (P10613 whole entry): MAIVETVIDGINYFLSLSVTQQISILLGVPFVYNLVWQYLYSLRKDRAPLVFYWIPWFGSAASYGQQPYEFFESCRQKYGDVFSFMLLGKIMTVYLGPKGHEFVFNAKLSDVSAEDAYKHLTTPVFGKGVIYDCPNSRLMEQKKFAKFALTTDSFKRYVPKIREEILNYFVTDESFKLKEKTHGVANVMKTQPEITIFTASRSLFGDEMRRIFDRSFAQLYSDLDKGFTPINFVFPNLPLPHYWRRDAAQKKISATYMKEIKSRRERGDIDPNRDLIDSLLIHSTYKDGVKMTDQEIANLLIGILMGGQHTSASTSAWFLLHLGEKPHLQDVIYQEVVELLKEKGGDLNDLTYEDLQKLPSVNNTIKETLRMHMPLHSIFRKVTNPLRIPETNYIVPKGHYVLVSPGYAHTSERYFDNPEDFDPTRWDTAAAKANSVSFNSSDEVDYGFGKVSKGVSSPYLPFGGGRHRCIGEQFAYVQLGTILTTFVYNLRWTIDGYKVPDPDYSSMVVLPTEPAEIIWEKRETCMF
# [11] = AUC (0 to infinity) in Sprague-Dawley rat at 2 mg/kg, iv measured at 0.08 to 24 hrs by LC-MS/MS analysis; format: ADME, organism-based; parameters: time 0.08-24 hrs, dose 2 mg/kg, route iv; details: in vivo
# Aspergillus fumigatus [12] = test: In-vivo antifungal activity against Aspergillus fumigatus CGMCC3 7795 infected in ip dosed ICR mouse model assessed as median survival time administered once daily pretreated for 24 hrs followed by infection and measured every 2 hrs for 5 days; format: functional, organism-based; details: dose 1.0 mg/kg, time 144.0 hrs
# [13] = target: T1, Lanosterol 14-alpha demethylase; test: Inhibition of CYP51 in Candida albicans SC3514 assessed as decrease in eburicol biosynthesis level at 0.5 times MIC80 incubated for 16 hrs by GC-MS analysis (Rvb=21.38%)
# [14] = target: T1, Lanosterol 14-alpha demethylase; test: Inhibition of CYP51 in Candida albicans […] assessed as decrease in ergosterol biosynthesis level at 1 times MIC80 incubated for 16 hrs by GC-MS analysis (Rvb=67.2%)
# Candida albicans [15] = test: Induction of resistance development in Candida albicans SC5314 assessed as increase in MIC treated over 8 serial passages by microdilution assay; format: functional
# [16] = target: T1, Lanosterol 14-alpha demethylase; test: Inhibition of CYP51 in Candida albicans […] assessed as decrease in unknown sterol biosynthesis level at 1 times MIC80 incubated for 16 hrs by GC-MS analysis relative to control
# Candida albicans [17] = test: In-vivo antifungal activity against Candida albicans […] infected in skin infected ICR mouse model assessed as reduction in fungal burden in skin at 0.5 mg/kg, ip pretreated for 24 hrs followed by infection and measured for 5 days by Periodic acid-Schiff staining based analysis; format: functional, organism-based; details: time 144.0 hrs
# Candida albicans [18] = test: In-vivo antifungal activity against Candida albicans […] infected in skin infected ICR mouse model assessed as wound healing at 0.5 mg/kg, ip pretreated for 24 hrs followed by infection and measured for 5 days; format: functional, organism-based; details: time 144.0 hrs
# Candida albicans [19] = test: Antifungal activity against fluconazole-resistant Candida albicans 15 assessed as inhibition of fungal growth measured for 24 hrs by CLSI based microdilution analysis; format: functional
# Cytochrome P450 3A4 = Cytochrome P450 3A4 (Homo sapiens, UniProt P08684); test: Inhibition of CYP3A4 in human liver microsomes using testosterone as substrate preincubated for 5 mins followed by NADPH addition and measured after 5 mins by LC-MS/MS analysis; format: ADME, Microsome
# Sequence of Cytochrome P450 3A4 (P08684 whole entry): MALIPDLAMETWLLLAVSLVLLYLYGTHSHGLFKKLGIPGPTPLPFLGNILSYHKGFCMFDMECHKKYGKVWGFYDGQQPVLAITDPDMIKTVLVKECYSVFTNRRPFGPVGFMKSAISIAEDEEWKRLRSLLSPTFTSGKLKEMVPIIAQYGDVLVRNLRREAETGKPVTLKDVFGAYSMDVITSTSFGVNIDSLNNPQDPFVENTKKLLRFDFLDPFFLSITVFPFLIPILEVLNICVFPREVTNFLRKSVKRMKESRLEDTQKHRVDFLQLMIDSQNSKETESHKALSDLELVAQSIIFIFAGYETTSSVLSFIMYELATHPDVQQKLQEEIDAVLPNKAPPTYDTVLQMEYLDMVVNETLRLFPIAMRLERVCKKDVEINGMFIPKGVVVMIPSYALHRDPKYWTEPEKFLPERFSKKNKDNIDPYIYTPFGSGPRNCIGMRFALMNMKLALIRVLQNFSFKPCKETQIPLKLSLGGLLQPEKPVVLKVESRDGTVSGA
# Aspergillus fumigatus [20] = test: Antifungal activity against Aspergillus fumigatus CGMCC3 7795 assessed as reduction in fungal growth incubated for 48 hrs by CLSI based microdilution analysis; format: functional
# [21] = target: T1, Lanosterol 14-alpha demethylase; test: Inhibition of CYP51 in Candida albicans […] assessed as decrease in lanosterol biosynthesis level at 0.5 times MIC80 incubated for 16 hrs by GC-MS analysis relative to control
# [22] = target: T1, Lanosterol 14-alpha demethylase; test: Inhibition of CYP51 in Candida albicans […] assessed as decrease in ergosterol biosynthesis level at 0.5 times MIC80 incubated for 16 hrs by GC-MS analysis (Rvb=67.2%)
# Candida albicans [23] = test: Antifungal activity against Candida albicans SC5314 assessed as reduction in fungal growth incubated for 24 hrs by CLSI based microdilution analysis; format: functional
# [24] = Clearance in Sprague-Dawley rat at 2 mg/kg, iv measured at 0.08 to 24 hrs by LC-MS/MS analysis; format: ADME, organism-based; details: in vivo, time 0.08-24 hrs
# Candida tropicalis = test: Antifungal activity against Candida tropicalis ATCC 750 assessed as reduction in fungal growth incubated for 24 hrs by CLSI based microdilution analysis; format: functional
# [25] = test system: Meyerozyma guilliermondii; test: Antifungal activity against Meyerozyma guilliermondii ATCC 6260 assessed as reduction in fungal growth incubated for 24 hrs by CLSI based microdilution analysis; format: functional
# Candida parapsilosis = test: Antifungal activity against Candida parapsilosis ATCC 22019 assessed as reduction in fungal growth incubated for 24 hrs by CLSI based microdilution analysis; format: functional; details: Lodderomyces parapsilosis
# Candida albicans [26] = test: In-vivo antifungal activity against Candida albicans […] infected in skin infected ICR mouse model assessed as reduction in fungal burden in skin at 1 mg/kg, ip pretreated for 24 hrs followed by infection and measured for 5 days by Periodic acid-Schiff staining based analysis; format: functional, organism-based; details: time 144.0 hrs
# Candida albicans [27] = test: Antifungal activity against fluconazole-resistant Candida albicans 13 assessed as inhibition of fungal growth measured for 24 hrs by CLSI based microdilution analysis; format: functional
# Candida albicans [28] = test: Induction of resistance development in Candida albicans SC5314 assessed as fold increase in MIC treated over 20 serial passages by microdilution assay; format: functional
smiles,measurement,setting,value
O[C@@](CN1CCN(CCn2ccc3cc(Br)ccc32)CC1)(Cn1cncn1)c1ccc(F)cc1F,MIC80,Candida albicans [1],0.031 µg/mL
same,MIC80,Candida albicans [2],0.031 µg/mL
same,MIC80,Cryptococcus neoformans,0.015 µg/mL
same,selectivity ratio,CYP3A4,100
same,MIC80,Candida albicans [3],1.25 µg/mL
same,MIC80,Candida albicans [4],0.015 µg/mL
same,"hemolysis at 1 h, 100 microg/ml",[5],1.9%
same,Activity,Candida albicans [6],Active
same,Time,Candida albicans [7],6 days
same,half-life,[8],1.04 h
same,Time,Candida albicans [9],12 days
same,MIC80,Nakaseomyces glabratus,0.078 µg/mL
same,inhibition (INH),[10],14.9%
same,AUC(0-inf),[11],1260 ng·h/mL
same,Activity,Aspergillus fumigatus [12],Dose-Dependent Effect
same,inhibition (INH),[13],21.3%
same,inhibition (INH),[14],5.41%
same,Activity,Candida albicans [15],Active
same,inhibition (INH),[16],27.03%
same,Activity,Candida albicans [17],Active
same,Activity,Candida albicans [18],Active
same,MIC80,Candida albicans [19],0.312 µg/mL
same,IC50,Cytochrome P450 3A4,400 nM
same,MIC80,Aspergillus fumigatus [20],0.625 µg/mL
same,inhibition (INH),[21],13.8%
same,inhibition (INH),[22],33.33%
same,MIC80,Candida albicans [23],0.004 µg/mL
same,clearance,[24],26.7 mL/min/kg
same,MIC80,Candida tropicalis,0.078 µg/mL
same,MIC80,[25],0.015 µg/mL
same,MIC80,Candida parapsilosis,0.008 µg/mL
same,Activity,Candida albicans [26],Active
same,MIC80,Candida albicans [27],0.015 µg/mL
same,fold change (FC),Candida albicans [28],8
